Reference: US20230233640A1, “ANTIVIRAL PREPARATION FROM CHESTNUT SHELLS OF CASTANEA SATIVA MILL” (Micronature S.R.L., priority 2019, published 2023)
Like-named read-outs stand apart in the source and are kept apart here.

Tests used:
[1] = Cytotoxicity in MT-4 cells (MTT); format: cell-based; conditions: human
Excerpt: (§1) Cell lines were purchased from American Type Culture Collection (ATCC). The absence of mycoplasma contamination was checked periodically by the Hoechst staining method. Cell lines supporting the multiplication of RNA viruses were the following: CD4+ human T-cells containing an integrated HTLV-1 genome (MT-4); Madin Darby Bovine Kidney (MDBK) [ATCC CCL 22 (NBL-1) Bos Taurus]; Baby Hamster Kidney (BHK-21) [ATCC CCL 10 (C-13) Mesocricetus auratus], Vero cells (CCL-81; American Type Culture Collection, Manassas, VA, USA)
(§2) Cytotoxicity assays were run in parallel with antiviral assays.
Exponentially growing MT-4 cells were seeded at an initial density of 1 × 10^5 cells/ml in 96-well plates in RPMI-1640 medium, supplemented with 10% fetal bovine serum (FBS), 100 units/mL penicillin G and 100 µg/mL streptomycin. Cell cultures were then incubated at 37° C. in a humidified, 5% CO2 atmosphere, in the absence or presence of serial dilutions of test compounds. Cell viability was determined after 96 hrs at 37° C. by the 3-(4,5-dimethylthiazol-2-yl)-2,5-diphenyl-tetrazolium bromide (MTT) method (Pauwels et al. 1988).

[2] = Cytotoxicity in VERO cells; format: cell-based; conditions: reference marked * (µM)
Excerpt: as §2

BVDV = format: cell-based, bovine viral diarrhoea virus (BVDV) strain NADL; conditions: reference marked * (µM); 50% protection of MDBK cells; read-out: In vitro efficacy EC50 BVDV
MDBK cells = assay: Cytotoxicity in MDBK cells (MTT); format: cell-based, Bos Taurus; conditions: reference marked * (µM)
Excerpt: as §1, §2
MDBK cells were seeded in 96-well plates at an initial density of 6 × 10^5 and 1 × 10^6 cells/mL, respectively, in Minimum Essential Medium with Earle’s salts (MEM-E), L-glutamine, 1 mM sodium pyruvate and 25 mg/L kanamycin, supplemented with 10% horse serum (MDBK). Cell cultures were then incubated at 37° C. in a humidified, 5% CO2 atmosphere in the absence or presence of serial dilutions of test compounds. Cell viability was determined after 72 hrs at 37° C. by the MTT method. […] Vero cells (1 × 10^6) were plated in 6-well multiwells and incubated the next day with the substance at the same concentrations used in the antiviral assays. […]

O=C1Nc2ccc(Cl)cc2[C@@](C#CC2CC2)(C(F)(F)F)O1 [EFV, Efavirenz]
CC50 at 96 h [1]: 40 µM

CC[C@H](C)[C@H](NC(=O)[C@H](C)NC(=O)[C@H](CCC(=O)O)NC(=O)[C@H](CCC(=O)O)NC(=O)[C@H](CC(C)C)NC(=O)[C@H](CCCCN)NC(=O)[C@H](CCCCN)NC(=O)[C@H](CCSC)NC(=O)[C@H](CCC(=O)O)NC(=O)[C@H](Cc1ccc(O)cc1)NC(=O)[C@H](CCC(=O)O)NC(=O)[C@H](CC(C)C)NC(=O)[C@H](CC(=O)O)NC(=O)[C@H](CC(C)C)NC(=O)[C@H](Cc1ccccc1)NC(=O)[C@@H](NC(=O)[C@@H](NC(=O)[C@H](CC(N)=O)NC(=O)[C@@H](NC(=O)[C@H](CCC(N)=O)NC(=O)[C@H](CC(=O)O)NC(=O)[C@H](CC(C)C)NC(=O)[C@@H](N)CO)[C@@H](C)CC)C(C)C)[C@@H](C)O)C(=O)N[C@@H](CCCCN)C(=O)N[C@@H](CCCCN)C(=O)N[C@@H](CC(C)C)C(=O)N[C@@H](CCC(=O)O)C(=O)N[C@@H](CCC(=O)O)C(=O)N[C@@H](CO)C(=O)N[C@@H](Cc1ccc(O)cc1)C(=O)N[C@H](C(=O)N[C@@H](CC(=O)O)C(=O)N[C@@H](CC(C)C)C(=O)N[C@@H](CCCCN)C(=O)N[C@@H](CCC(=O)O)C(=O)N[C@@H](CC(C)C)C(=O)O)[C@@H](C)CC [EK1]
CC50 [2]: > 100 µM | EC50 (SARS-CoV-2): 5.4 µM

C[C@@]1(O)[C@H](O)[C@@H](CO)O[C@H]1n1cnc2c(=O)[nH]c(N)nc21 [NM 108]
EC50 (BVDV): 1.6 µM | CC50 (MDBK cells): > 100 µM

Enfuvirtide
In vitro efficacy EC50 HIV-1 (HIV-1): 0.017 µg/mL

enfuvirtide
CC50 at 96 h ([1]; mock-infected MT-4 cells, viability reduced by 50%, MTT method, read-out: Cytotoxicity in MT-4 cells CC50): > 100 µg/mL
